Values quoted from earlier work in patent publication US10294298B2, “Human PAC1 antibodies” (AMGEN INC., priority 2013, dated 2019).

What was measured:
[1] = biological target: T1, VPAC1 (Homo sapiens, UniProt P32241); settings: receptor agonist; background table
T1 sequence (P32241 31-457): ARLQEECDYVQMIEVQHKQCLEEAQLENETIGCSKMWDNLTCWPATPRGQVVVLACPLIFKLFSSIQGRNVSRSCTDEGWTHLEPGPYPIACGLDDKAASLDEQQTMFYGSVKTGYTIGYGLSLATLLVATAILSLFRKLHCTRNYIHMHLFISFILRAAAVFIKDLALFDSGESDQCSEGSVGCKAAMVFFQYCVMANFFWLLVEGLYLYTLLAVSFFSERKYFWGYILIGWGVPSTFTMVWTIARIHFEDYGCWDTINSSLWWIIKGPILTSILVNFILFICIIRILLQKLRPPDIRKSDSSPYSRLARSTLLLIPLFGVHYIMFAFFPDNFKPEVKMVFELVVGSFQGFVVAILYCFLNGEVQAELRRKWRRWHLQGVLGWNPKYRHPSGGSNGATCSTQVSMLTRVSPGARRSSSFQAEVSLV

[2] = biological target: T2, VPAC2 (Homo sapiens, UniProt P41587); settings: receptor agonist; background table
T2 sequence (P41587 24-438): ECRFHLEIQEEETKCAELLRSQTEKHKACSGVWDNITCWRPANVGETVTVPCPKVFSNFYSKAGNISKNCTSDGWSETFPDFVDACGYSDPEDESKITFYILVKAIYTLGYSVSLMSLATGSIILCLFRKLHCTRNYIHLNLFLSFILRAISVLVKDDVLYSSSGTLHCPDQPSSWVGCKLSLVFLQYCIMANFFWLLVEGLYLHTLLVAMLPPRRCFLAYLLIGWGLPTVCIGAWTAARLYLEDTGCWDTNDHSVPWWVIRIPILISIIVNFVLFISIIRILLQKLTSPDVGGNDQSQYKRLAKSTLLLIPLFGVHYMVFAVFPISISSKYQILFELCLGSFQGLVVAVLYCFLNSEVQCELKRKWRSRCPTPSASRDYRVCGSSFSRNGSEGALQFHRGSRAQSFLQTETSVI

For Maxadilan, the EC50 [1] is listed as over 1000 nM and the EC50 [2] is listed as over 1000 nM.
